Experimental data reported in patent publication EP4603105A1, “PHARMACEUTICAL COMPOSITION CONTAINING CYCLIC COMPOUND HAVING SELECTIVE KRAS INHIBITORY EFFECT AGAINST HRAS AND NRAS” (CHUGAI SEIYAKU KABUSHIKI KAISHA, priority 2022, dated 2024).
Read-outs that look alike come from different tables or passages of the source. Values belong to the compound of their own block, whether it stands above or below them.

Columns and labels:
[1] = tested on: human lung cancer strain NCI-H441; assay: NCI-H441 cell proliferation inhibitory activity (CellTiter-Glo, 4 days); type: cell-based; settings: read-out: NCl-H441 IC50
Method: A test compound was dispensed into a U-bottom 384-well plate as 40 nL serially diluted dimethyl sulfoxide solutions using a liquid handler Echo (LABCYTE). […] This cell suspension was dispensed in an amount of 40 µL per well into a plate containing the test compound, and cultured at 37°C in a 5% carbon dioxide gas incubator. Four days later, 20 µL of CellTiter-Glo (registered trademark) (Promega) was added to each well and […] was measured. […]

HRAS wild-type protein = HRAS wild-type protein (Homo sapiens, UniProt P01112); assay: Binding to HRAS by surface plasmon resonance (SPR), KD and KD ratio to KRAS
Summary of the method: (§1)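 Biotinylated GDP-bound RAS was captured at about 100–300 RU. Running buffer: HBS pH 7.4, 10 mM MgCl2, 10 µM GDP, 1 mM DTT, 0.01% Tween 20, 4% DMSO.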

[2] = target: GDP-bound NRAS wild-type protein (Homo sapiens, UniProt P01111); assay: Binding to NRAS by surface plasmon resonance (SPR), KD and KD ratio to KRAS
Summary of the method: as §1

[3] = tested on: human lung cancer strain NCI-H441; type: cell-based
Summary of the method: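 Step one: dispense the test compound in serial DMSO dilutions. Step three: add the reagent and measure […].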

[4] = target: GDP-bound KRAS wild-type protein (Homo sapiens, UniProt P01116); assay: Binding to KRAS by surface plasmon resonance (SPR), dissociation constant KD; settings: Single Cycle Kinetics, 1:1 binding model
Summary of the method: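 Single-cycle kinetics on GDP-loaded biotin-Avi RAS captured to ~100–300 RU; 75 s ascending injections, 100 µL/min, 30°C. HBS pH 7.4 + 10 mM MgCl2/10 µM GDP/4% DMSO. 1:1 fit, KD.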

[5] = ratio of KD for HRAS wild-type protein to KD for KRAS
[6] = ratio of KD for GDP-bound NRAS wild-type protein to KD for KRAS
[7] = 50% proliferation inhibitory concentration, four days
[8] = ratio of the KD value with respect to HRAS wild-type protein to the KD value with respect to KRAS
[9] = ratio of the KD value with respect to GDP-bound NRAS wild-type protein to the KD value with respect to KRAS

HRAS wild-type protein, sequence (P01112 whole entry): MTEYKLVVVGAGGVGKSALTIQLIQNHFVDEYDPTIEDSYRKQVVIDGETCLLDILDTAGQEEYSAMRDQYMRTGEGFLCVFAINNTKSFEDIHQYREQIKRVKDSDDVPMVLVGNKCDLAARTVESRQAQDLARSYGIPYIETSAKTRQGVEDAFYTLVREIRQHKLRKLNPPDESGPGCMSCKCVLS
GDP-bound KRAS wild-type protein, sequence (P01116 1-188 isoform P01116-2): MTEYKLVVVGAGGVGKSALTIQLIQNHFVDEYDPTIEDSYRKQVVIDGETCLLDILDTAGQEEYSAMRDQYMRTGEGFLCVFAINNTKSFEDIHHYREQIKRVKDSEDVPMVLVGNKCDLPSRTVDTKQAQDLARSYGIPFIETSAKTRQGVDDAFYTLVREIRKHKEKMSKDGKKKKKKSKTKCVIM
GDP-bound NRAS wild-type protein, sequence (P01111 whole entry): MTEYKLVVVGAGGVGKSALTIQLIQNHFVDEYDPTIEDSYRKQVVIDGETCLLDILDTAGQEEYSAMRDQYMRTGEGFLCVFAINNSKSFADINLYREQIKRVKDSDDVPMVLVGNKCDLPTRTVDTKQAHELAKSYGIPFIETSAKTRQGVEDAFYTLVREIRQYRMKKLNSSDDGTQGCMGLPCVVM

SMILES: CCO[C@@H]1C[C@H]2C(=O)NC3(CCC3)C(=O)N(C)[C@@H](C3CCCC3)C(=O)N(C)[C@H](C(=O)N3CCCC3)CC(=O)N(C)[C@@H](CC3CCC3)C(=O)N[C@@H]([C@@H](C)CC)C(=O)N(C)CC(=O)N(C)[C@H]3C/C=C\CCN(C3=O)[C@@H](Cc3ccc(C(F)(F)F)cc3)C(=O)N(C)CC(=O)N[C@@H](CCc3cc(F)c(C(F)(F)F)c(F)c3)C(=O)N2C1 [PP1423]
IC50 [1, 7]: 4.4 nM

SMILES: CCO[C@@H]1C[C@H]2C(=O)NC3(CCC3)C(=O)N(C)[C@@H](C3CCCC3)C(=O)N(C)[C@H](C(=O)N(C)C)CC(=O)N(C)[C@@H](CC3CCCC3)C(=O)N[C@@H]([C@@H](C)CC)C(=O)N(C)CC(=O)N(C)[C@H]3C/C=C\CCN(C3=O)[C@@H](CC3CCCCC3)C(=O)N(C)CC(=O)N[C@@H](CCc3cc(F)c(C(F)(F)F)c(F)c3)C(=O)N2C1 [PP1472]
IC50 [1, 7]: 37.1 nM

SMILES: CCC[C@H]1C(=O)N[C@@H]([C@@H](C)CC)C(=O)N(C)CC(=O)N(C)[C@H]2C/C=C\CCN(C2=O)[C@@H](CC2CCC(F)(F)CC2)C(=O)N(C)CC(=O)N[C@@H](CCc2cc(F)c(C(F)(F)F)c(F)c2)C(=O)N2C[C@H](OCC)C[C@H]2C(=O)NC2(CCC2)C(=O)N(C)[C@@H](C2CCCC2)C(=O)N(C)[C@H](C(=O)N(C)C)CC(=O)N1C [PP1450]
IC50 [1, 7]: 50.1 nM

SMILES: CC[C@H](C)[C@@H]1NC(=O)[C@H](CC)N(C)C(=O)C[C@@H](C(=O)N(C)C)N(C)C(=O)[C@H](C2CCCC2)N(C)C(=O)C2(CCC2)NC(=O)[C@@H]2C[C@@H](C(F)(F)F)CN2C(=O)[C@H](CCc2cc(F)c(C(F)(F)F)c(F)c2)NC(=O)CN(C)C(=O)[C@H](CC2CCC(F)(F)CC2)N2CC/C=C\C[C@@H](C2=O)N(C)C(=O)CN(C)C1=O [PP1451]
IC50 [1, 7]: 61.1 nM

SMILES: CCO[C@@H]1C[C@H]2C(=O)NC3(COC3)C(=O)N(C)[C@@H](C3CCCC3)C(=O)N(C)[C@H](C(=O)N(C)C)CC(=O)N(C)[C@@H](CC)C(=O)N[C@@H]([C@@H](C)CC)C(=O)N(C)CC(=O)N(C)[C@H]3C/C=C\CCN(C3=O)[C@@H](Cc3ccc(C(F)(F)F)cc3)C(=O)N(C)CC(=O)N[C@@H](CCc3cc(F)c(C(F)(F)F)c(F)c3)C(=O)N2C1 [PP1278]
IC50 [1, 7]: 45.7 nM

SMILES: CCO[C@@H]1C[C@H]2C(=O)NC3(CCC3)C(=O)N(C)[C@@H](C3CCCC3)C(=O)N(C)[C@@H](C(=O)N(C)C)CC(=O)N(C)[C@@H](CC3CCCC3)C(=O)N[C@@H]([C@@H](C)CC)C(=O)N(C)CC(=O)N(C)[C@H]3C/C=C\CCN(C3=O)[C@@H](Cc3ccc(C(F)(F)F)cc3)C(=O)N(C)CC(=O)N[C@@H](CCc3cc(F)c(C(F)(F)F)c(F)c3)C(=O)N2C1 [PP1235]
HRAS /KRAS (HRAS wild-type protein; ratio of KD with respect to HRAS wild-type protein to KD with respect to KRAS): C (A compound having a KD ratio of 0.1 or more and less than 3 is denoted as C)
IC50 [1, 7]: 386 nM
NRAS /KRAS ([2]; ratio of KD with respect to GDP-bound NRAS wild-type protein to KD with respect to KRAS): B (a compound having 3 or more and less than 10 is denoted as B)

SMILES: CCO[C@@H]1C[C@H]2C(=O)NC3(CCC3)C(=O)N(C)[C@@H](C3CCCC3)C(=O)N(C)[C@H](C(=O)N3CCOCC3)CC(=O)N(C)[C@@H](CC)C(=O)N[C@@H]([C@@H](C)CC)C(=O)N(C)CC(=O)N(C)[C@H]3C/C=C\CCN(C3=O)[C@@H](Cc3ccc(C(F)(F)F)cc3)C(=O)N(C)CC(=O)N[C@@H](CCc3ccc(C(F)(F)F)c(Cl)c3)C(=O)N2C1 [PP1281]
IC50 [1, 7]: 10.2 nM

SMILES: CCC[C@H]1C(=O)N[C@@H]([C@@H](C)CC)C(=O)N(C)CC(=O)N(C)[C@H]2C/C=C\CCN(C2=O)[C@@H](Cc2ccc(C(F)(F)F)cc2)C(=O)N(C)CC(=O)N[C@@H](CCc2cc(F)c(C(F)(F)F)c(F)c2)C(=O)N2C[C@H](OCC)C[C@H]2C(=O)NC2(CCC2)C(=O)N(C)[C@@H](C2CCCC2)C(=O)N(C)[C@H](C(=O)N2CCCC2)CC(=O)N1C [PP1299]
IC50 [1, 7]: 11 nM

SMILES: CCCC[C@H]1C(=O)N[C@@H]([C@@H](C)CC)C(=O)N(C)CC(=O)N(C)[C@H]2C/C=C\CCN(C2=O)[C@@H](Cc2ccc(C(F)(F)F)cc2)C(=O)N(C)CC(=O)N[C@@H](CCc2cc(F)c(C(F)(F)F)c(F)c2)C(=O)N2C[C@H](OCC)C[C@H]2C(=O)NC2(CCC2)C(=O)N(C)[C@@H](C2CCCC2)C(=O)N(C)[C@H](C(=O)N2CCCC2)CC(=O)N1C [PP1396]
IC50 [1, 7]: 19.4 nM

SMILES: CCO[C@@H]1C[C@H]2C(=O)NC3(CCC3)C(=O)N(C)[C@@H](C3CCCC3)C(=O)N(C)[C@H](C(=O)N(C)C)CC(=O)N(C)[C@@H](CC)C(=O)N[C@@H]([C@@H](C)CC)C(=O)N(C)CC(=O)N(C)[C@H]3C/C=C\CCN(C3=O)[C@@H](CC3CCCCC3)C(=O)N(C)CC(=O)N[C@@H](CCc3cc(F)c(C(F)(F)F)c(F)c3)C(=O)N2C1 [PP1466]
IC50 [1, 7]: 33.2 nM

SMILES: CC[C@H](C)[C@@H]1NC(=O)[C@H](CC(C)C)N(C)C(=O)C[C@@H](C(=O)N2C3CCC2COC3)N(C)C(=O)[C@H](C2CCCC2)N(C)C(=O)C2(CCCC2)NC(=O)[C@@H]2CCCN2C(=O)[C@H](CCc2cc(F)c(C(F)(F)F)c(F)c2)NC(=O)CN(C)C(=O)[C@H](Cc2ccc(C(F)(F)F)cc2)N2CCCCC[C@@H](C2=O)N(C)C(=O)CN(C)C1=O [PP0511]
HRAS /KRAS (HRAS wild-type protein; [8]): B (a compound having 3 or more and less than 10 is denoted as B)
IC50 [3]: 414 nM
Kd [4]: 16 nM
NRAS /KRAS [2, 9]: A (a compound having 10 or more and less than 20 is denoted as A)

SMILES: CC[C@H](C)[C@@H]1NC(=O)[C@H](CC(C)C)N(C)C(=O)C[C@@H](C(=O)N2C3CCC2COC3)N(C)C(=O)[C@H](C2CCCC2)N(C)C(=O)C2(CCCC2)NC(=O)[C@@H]2CCCN2C(=O)[C@H](CCc2cc(F)c(C(F)(F)F)c(F)c2)NC(=O)CN(C)C(=O)[C@H](Cc2ccc(C(F)(F)F)cc2)N2CCCC[C@@H](C2=O)N(C)C(=O)CN(C)C1=O [PP0573]
HRAS /KRAS (HRAS wild-type protein; [8]): B (a compound having 3 or more and less than 10 is denoted as B)
IC50 [3]: 8.7 nM
Kd [4]: 0.34 nM
NRAS /KRAS [2, 9]: B (a compound having 3 or more and less than 10 is denoted as B)

The next lines start with results.

IC50 ([1]; NCI-H441 cells, 4 days): 22.1 nM
SMILES: CCO[C@@H]1C[C@H]2C(=O)NC3(CC(C)(C)C3)C(=O)N(C)[C@@H](C3CCCC3)C(=O)N(C)[C@H](C(=O)N(C)CC)CC(=O)N(C)[C@@H]([C@H](C)OC)C(=O)N[C@@H]([C@@H](C)CC)C(=O)N(C)CC(=O)N(C)[C@H]3C/C=C\CCN(C3=O)[C@@H](Cc3ccc(C(F)(F)F)cc3)C(=O)N(C)CC(=O)N[C@@H](CCc3ccc(C(F)(F)F)c(OC)c3)C(=O)N2C1 [PP3216]

IC50 ([1]; NCI-H441 cells, 4 days): 71.9 nM
SMILES: CCCOC[C@H]1C(=O)N[C@@H]([C@@H](C)OCC)C(=O)N(C)CC(=O)N(C)[C@H]2C/C=C\CCN(C2=O)[C@@H](Cc2ccc(C)cc2)C(=O)N(C)CC(=O)N[C@@H](CCc2ccc(C(F)(F)F)c(OC)c2)C(=O)N2C[C@@H](C)C[C@H]2C(=O)NC2(CC(C)(C)C2)C(=O)N(C)[C@@H](C2CCCC2)C(=O)N(C)[C@H](C(=O)N(C)CC)CC(=O)N1C [PP2423]
HRAS /KRAS (HRAS wild-type protein; [5]): A (a compound having 10 or more and less than 20 is denoted as A)
NRAS /KRAS [2, 6]: A (a compound having 10 or more and less than 20 is denoted as A)

IC50 ([1]; NCI-H441 cells, 4 days): 33.4 nM
SMILES: CC[C@H](C)[C@@H]1NC(=O)[C@H](COC)N(C)C(=O)C[C@@H](C(=O)N(C)C)N(C)C(=O)[C@H](C2CCCC2)N(C)C(=O)C2(CC(C)(C)C2)NC(=O)[C@@H]2C[C@@H](OC3CCCC3)CN2C(=O)[C@H](CCc2cc(F)c(C(F)(F)F)c(F)c2)NC(=O)CN(C)C(=O)[C@H](Cc2ccc(C)cc2)N2CC/C=C\C[C@@H](C2=O)N(C)C(=O)CN(C2CC2)C1=O [PP2626]
HRAS /KRAS (HRAS wild-type protein; [5]): A (a compound having 10 or more and less than 20 is denoted as A)
NRAS /KRAS [2, 6]: A (a compound having 10 or more and less than 20 is denoted as A)

IC50 ([1]; NCI-H441 cells, 4 days): 15.1 nM
SMILES: CCO[C@@H]1C[C@H]2C(=O)NC3(CC(C)(C)C3)C(=O)N(C)[C@@H](C3CCCC3)C(=O)N(C)[C@H](C(=O)N(C)CC)CC(=O)N(C)[C@@H]([C@H](C)OC)C(=O)N[C@@H]([C@@H](C)CC)C(=O)N(C)CC(=O)N(C)[C@H]3C/C=C\CCN(C3=O)[C@@H](Cc3ccc(C(F)(F)F)cc3)C(=O)N(C)CC(=O)N[C@@H](CCc3ccc(C(F)(F)F)c(Cl)c3)C(=O)N2C1 [PP3218]

IC50 ([1]; NCI-H441 cells, 4 days): 12.1 nM
SMILES: CCO[C@@H]1C[C@H]2C(=O)NC3(CC(C)(C)C3)C(=O)N(C)[C@@H](C3CCCC3)C(=O)N(C)[C@H](C(=O)N(C)CC)CC(=O)N(C)[C@@H]([C@H](C)OC)C(=O)N[C@@H]([C@@H](C)CC)C(=O)N(C)CC(=O)N(C)[C@H]3C/C=C\CCN(C3=O)[C@@H](Cc3ccc(C)cc3)C(=O)N(C)CC(=O)N[C@@H](CCc3ccc(C(F)(F)F)c(OC)c3)C(=O)N2C1 [PP3225]

IC50 [3]: 13.5 nM
Kd [4]: 1.5 nM
SMILES: CCO[C@@H]1C[C@H]2C(=O)NC3(CC(C)(C)C3)C(=O)N(C)[C@@H](C(CC)CC)C(=O)N(C)[C@H](C(=O)N(C)C)CC(=O)N(C)[C@@H](CC)C(=O)N[C@@H]([C@@H](C)CC)C(=O)N(C)CC(=O)N(C)[C@H]3C/C=C\CCN(C3=O)[C@@H](Cc3ccc(C(F)(F)F)cc3)C(=O)N(C)CC(=O)N[C@@H](CCc3ccc(Cl)c(Cl)c3)C(=O)N2C1 [PP2179]
HRAS /KRAS (HRAS wild-type protein; [8]): A (a compound having 10 or more and less than 20 is denoted as A)
NRAS /KRAS [2, 9]: AA (a compound having 20 or more is denoted as AA)
